Test results as given in US5283343A, “2-aryl substituted N-acetyltryptamines and process of preparing such” (priority 1991, dated 1994).
“Also recorded” adds a separate entry of the source.

Columns and labels:
melatonin receptor [1] = biological target: T1, melatonin receptor (Oryctolagus cuniculus, UniProt G1SUP2); settings: in vitro, Dubocovich literature; cited from earlier work
T1 sequence (G1SUP2 1-362): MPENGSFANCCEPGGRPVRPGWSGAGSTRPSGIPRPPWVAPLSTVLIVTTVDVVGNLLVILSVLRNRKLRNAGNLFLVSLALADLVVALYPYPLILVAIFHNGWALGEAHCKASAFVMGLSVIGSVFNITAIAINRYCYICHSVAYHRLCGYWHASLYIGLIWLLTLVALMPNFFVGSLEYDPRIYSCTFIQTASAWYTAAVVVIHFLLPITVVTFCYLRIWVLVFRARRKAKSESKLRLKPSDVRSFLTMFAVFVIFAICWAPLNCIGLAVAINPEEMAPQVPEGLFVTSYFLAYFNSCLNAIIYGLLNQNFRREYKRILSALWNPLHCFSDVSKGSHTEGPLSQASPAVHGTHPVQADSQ

[2] = Behavioral despair (forced swimming) test for antidepressants, C3H/HeN mice; type: in vivo, mouse (C3H/HeN)
Excerpt: (§1) Methods: Typical and atypical antidepressants reduce the time during which mice are immobile in a forced swimming test. [Porsolt et al., Arch. Int. Pharmacodun. Ther. 229:327-336 (1977)]. This test, known as the behavioral despair test, appears to be a good predictor of clinical antidepressant activity.
(§2) Male albino Swiss ND/4 mice and C3H/HeN mice (4 to 5 weeks old) were purchased from Harlam Sprague Dawley (Indianapolis, Ind.). […] The animals were kept in the same facilities at least two weeks before the experiment to allow them to adapt to a 14/10 hour light/dark cycle (lights on at 4 a.m./off at 6 p.m.).
(§3) Mice were housed in groups of 10 in polycarbonate plastic cages 137/8×85/8×51/8 inches with 88 square inches of floor space) with free access to feed (Agway 3000 rat, mouse and hamster feed) and water. During the light period, light intensity at the level of the cages was about 250 lux. The room temperature was kept constant at 22±1° C. The present series of experiments were conducted between October, 1986 and January, 1987.
(§4) The day of the experiment, mice were weighed, marked on the tail and placed in cages (8 mice per cage) as described above. Animals were transferred to the laboratory where the swim test was to be conducted at 10:00 a.m. for noon experiments and at 5:00 p.m. for evening experiments. For noon experiments, the swim test was started at 12:00 h and for midnight experiments, the swim test was started at 24:00 h. Two mice obtained from different experimental groups were tested simultaneously.
(§5) Apparatus: The apparatus consisted of two glass beakers (height: 13 cm; diameter: 11.5 cm), each placed inside a bigger glass beaker (height: 20 cm; diameter: 12.4 cm) containing 6 cm of water at 23±1° C. A non-transparent panel placed between the two cylinders prevented the mice from seeing each other. At midnight, experiments were conducted under red dim light (Kodak, filter A) provided by two photographic safety lights located at each side of the beakers.
(§6) Drugs: Mice were injected with vehicle or drugs dissolved in vehicle dissolved at the appropriate concentrations. Each mouse received 0.1 ml of liquid/10 g body weight. Drugs were dissolved immediately before the experiment. Desipramine was obtained from Sigma (St. Louis, Mo.) and dissolved in water. […] Bright light was administered with a fluorescent lamp placed one foot above the mice.
(§7) Methods The swim test was conducted as described by Porsolt et al. [Arch. Int. Pharmacodyn. 229:327-336 (1977)]. Forced swim in a narrow cylinder induced a depressed state characterized by an immobile posture, which is readily identifiable. A mouse is considered to be immobile when it ceases struggling and remains floating motionless in the water, making only those movements necessary to keep its head above water. […] Two mice that had received different treatments were observed simultaneously. Mice were dropped into the cylinders and left in the water for 6 minutes. The time of immobility was recorded during the last 4 minutes of swimming.

[3] = Behavioral despair (forced swimming) test for antidepressants, albino Swiss ND/4 mice; type: in vivo, mouse (male albino Swiss ND/4); settings: for change in time of immobility (in words): albino Swiss mice, noon or midnight; for Duration of Immobility: albino Swiss ND/4 mice, 30 mg/kg
Excerpt: as §1, §2, §3, §4, §5, §6, §7

melatonin receptor [4] = biological target: T1, melatonin receptor; experiment: Melatonin receptor assay: calcium-dependent/stimulation-evoked release of 3H-dopamine from rabbit retina (Dubocovich assay); type: biochemical; settings: for effect on melatonin concentration-response curves / melatonin-induced inhibition of calcium-dependent 3H-DA release: compound present during S1 and S2, 0.1, 1 or 10 μM, FIGS. 3a, 3b
Protocol: Briefly, dopamine release was elicited in vitro by electrical field stimulation (3 Hz, 1 min. 20 mA, […].) of rabbit retinal pieces which had been prelabeled with ^3 H-dopamine. Release was determined as the percentage of total tissue radioactivity that was released during stimulation(s) minus the spontaneous release level determined before and after stimulation. Two periods of stimulation (S1 and S2) were applied 40 minutes apart in each experiment. Results are expressed as the ratio of release in S2 to release in S1 (FIG. 1.).
Drugs are added 20 minutes before the second stimulation to test their effect on the spontaneous and stimulation evoked release of ^3 H-dopamine.
First, the compounds (antagonists) were tested alone to determine their effect on spontaneous and stimulated release of dopamine (FIG. 2a.).
The compound of Example A was present during both S1 and S2 at a concentration of 0.1 μM, 1 μM, or 10 μM. Control is .largecircle..

melatonin receptor [5] = settings: rabbit or chicken retina, Dubocovich 1985; cited from earlier work
[6] = C3H/HeN mice, noon and midnight
[7] = C3H/HeN mice, 3.00 mg/kg, midnight, control 67.7 ± 2.15
[8] = C3H/HeN mice, 3.00 mg/kg, noon, control 47.7 ± 3.4
[9] = C3H/HeN mice, 10.00 mg/kg, midnight, control 67.7 ± 2.15
[10] = C3H/HeN mice, 10.00 mg/kg, noon, control 47.7 ± 3.4
[11] = C3H/HeN mice, .03 mg/kg, midnight, control 67.7 ± 2.15
[12] = C3H/HeN mice, .03 mg/kg, noon, control 47.7 ± 3.4

COc1ccc2[nH]cc(CCNC(C)=O)c2c1 [Melatonin, 5-methoxy-N-acetyl tryptamine]
inhibition of calcium-dependent release of 3H dopamine from rabbit retina (melatonin receptor [1]): inhibit dopamine release; also recorded: picomolar concentrations | Duration of Immobility ([2]; C3H/HeN mice, 30 mg/kg, Noon (In-Darkness Administration), control 29.5 ± 3.34): 48.2 ± 5.02 s | Duration of Immobility ([2]; C3H/HeN mice, 30.00 mg/kg, midnight, control 67.7 ± 2.15): 57.9 ± 9.0 s | Duration of Immobility ([2]; C3H/HeN mice, 30.00 mg/kg, noon, control 47.7 ± 3.4): 45.9 ± 18.0 s | change in time of immobility (in words) [2, 6]: did not change the time of immobility | change in time of immobility (in words) ([2]; C3H/HeN mice, noon, in-darkness administration): increased the time of immobility | change in time of immobility (in words) [3]: neither melatonin nor the melatonin receptor antagonist N-0074 modified the time of immobility

CC(=O)NCCc1c(Cc2ccccc2)[nH]c2ccccc12 [Example N-0774, 2-benzyl-N-acetyl tryptamine]
Duration of Immobility [2, 7]: 16.1 ± 5.2 s | Duration of Immobility [2, 8]: 37.4 ± 6.6 s | Duration of Immobility [2, 9]: 13.1 ± 3.6 s | Duration of Immobility [2, 10]: 52.1 ± 6.8 s | Duration of Immobility [2, 11]: 47.7 ± 4.7 s | Duration of Immobility [2, 12]: 53.8 ± 8.8 s | change in time of immobility (in words) [2, 6]: reduces the time of immobility in a dose-dependent fashion, the effect being more pronounced at midnight than at noon | Duration of Immobility ([2]; Table 4, 10 mg/kg, midnight, control 67.7 ± 2.15, strain not given): 16.1 ± 5.20 s | change in time of immobility (in words) ([2]; midnight, compared with bright light): decreases the time of immobility | Duration of Immobility ([3]; midnight, control 84.3 ± 11.2): 81.4 ± 3.9 s | Duration of Immobility ([3]; noon, control 72.4 ± 4.9): 57.4 ± 8.9 s | change in time of immobility (in words) [3]: neither melatonin nor the melatonin receptor antagonist N-0074 modified the time of immobility | estimated KB (affinity constant from the Schild plot) (melatonin receptor [4]; antagonist against melatonin, rabbit retina, antagonist 0.1, 1 or 10 μM in S1 and S2): 20 µM | direct effect on spontaneous dopamine release (Sp2/Sp1) (melatonin receptor [4]; compound alone, 0.1-10 μM, FIG. 2a, listed as Example A): little or no direct effects; also recorded: did not modify the control ratio Sp2 /Sp1 | direct effect on stimulated (calcium-dependent) dopamine release (S2/S1) (melatonin receptor [4]; compound alone, 0.1-10 μM, FIG. 2b, listed as Example A): little or no direct effects; also recorded: did not modify the control ratio | effect on melatonin concentration-response curves / melatonin-induced inhibition of calcium-dependent 3H-DA release (melatonin receptor [4]; listed as Example A): shifted in parallel to the right | effect on melatonin concentration-response curves / melatonin-induced inhibition of calcium-dependent 3H-DA release (melatonin receptor [4]; listed as Luzindole (N-0774)): antagonization of melatonin-induced inhibition | activity at melatonin receptors (conclusion) (melatonin receptor [4]; rabbit retina): potent, competitive antagonist at melatonin receptors

CC(=O)NCCc1c[nH]c2ccccc12 [N-acetyl tryptamine]
melatonin receptor antagonist property (melatonin receptor [5]): melatonin receptor antagonist

CNCCCN1c2ccccc2CCc2ccccc21 [Desipramine]
Duration of Immobility [2, 7]: 16.1 ± 6.0 s | Duration of Immobility [2, 8]: 20.7 ± 3.7 s | Duration of Immobility [2, 9]: 13.2 ± 7.2 s | Duration of Immobility [2, 10]: 20.7 ± 2.0 s | Duration of Immobility [2, 11]: 33.2 ± 7.3 s | Duration of Immobility [2, 12]: 46.2 ± 12.9 s | change in time of immobility (in words) [2, 6]: more potent to reduce the time of immobility at midnight than at noon | Duration of Immobility ([3]; midnight, control 84.3 ± 11.2): 46.0 ± 1.3 s | Duration of Immobility ([3]; noon, control 72.4 ± 4.9): 38.2 ± 5.1 s | change in time of immobility (in words) [3]: same decrease in time of immobility in the behavioral despair test at noon and at midnight
